Assay results published in EP0044992A1, “Lactams, process for their preparation and pharmaceutical compositions containing them” (Dr. Karl Thomae GmbH, priority 1980, dated 1982).
Values after ≈ are worked out from the molar mass of the structure shown.

Key:
[1] = tested on: Enterobacter cloacae ATCC 13 047; assay: Serial dilution test in microtiter system (bacteriostasis, MIC); format: cell-based; conditions: liquid medium, 18 to 20 h at 37 °C, read-out: Minimale Hemmkonzentration Ent. cloacae ATCC 13047
Description: (§1) Für die Untersuchungen wurde die Methode des Reihenverdünnungstestes im Mikrotitersystem angewandt. Die Prüfung der Substanzen auf Bakteriostase erfolgte in flüssigem Medium. Es wurde die Bakteriostasewirkung bei folgenden Konzentrationen untersucht: • 128, 64, 32, 16, 8, 4, 2, 1, 0,5, 0,25, 0,12, 0,06jug/ml. Es wurde ein Nährboden folgender Zusammensetzung benutzt: 10 g Pepton, 8 g Fleischextrakt-Oxoid, 3 g Natriumchlorid, 2 g sek. Natriumphosphat werden mit dest. Wasser auf […] aufgefüllt (pH 7,2 - 7,4). Lediglich bei der Testung gegen Streptokokken wurde 1 % Glucose hinzugefügt. Das Alter der Primärkulturen betrugt etwa 20 Stunden. Die Einstellung der Keimsuspension erfolgte am Photometer (nach "Eppendorf") (Reagenzglas-Durchmesser 14 mm, Filter 546nm) anhand der Trübung einer Bariumsulfat-Vergleichssuspension, die durch eine Bariumsulfat-Aufschwemmung erzeugt wurde, welche durch die Zugabe von 3,0 ml 1%ige Barium-chloridlösung in 97 ml 1%ige Schwefelsäure entstand. Nach der Einstellung wurden Streptococcus Aronson im Verhältnis 1:15 und die übrigen Testkeime im Verhältnis 1:1500 mit einer Kochsalzlösung weiter verdünnt.
(§2) 16 mg der jeweiligen Substanz wurden in 10 ml-Meßkolben eingewogen und mit dem Lösungsmittel bis zur Marke aufgefüllt. Die weitere Verdünnungsreihe wurde mit destilliertem Wasser oder dem jeweiligen Lösungsmittel hergestellt.
(§3) Die Vertiefungen der Mikrotiterplatten wurden mit 0,2 ml Nährmedium, 0,01 ml der entsprechenden Substanzverdünnung und mit einem Tropfen Keimsuspension (0,01 ml) beschickt und 18 bis 20 Stunden bei 37 °C bebrütet. Eine Lösungsmittelkontrolle wurde stets mitgeführt.
(§4) Die Ablesung wurde makroskopisch vorgenommen, wobei die jeweilige Grenzkonzentration (= niedrigste noch bakteriostatisch wirksame Konzentration) ermittelt wurde.
(§5) Als Testorganismen wurden benützt: • Staphylococcus aureus SG 511, Escherichia coli ATCC 11 775, Pseudomonas aeruginosa Hamburgensis und Pseudomonas; aeruginosa walter, Serratia marcescens ATCC 13 880, Klebsiella pneumoniae ATCC 10 031 und BC 6, Proteus mirabilis Hamburgensis, Proteus rettgeri, Enterobacter cloacae ATCC 13 047, E. coli R+TEM (ß-Lactamase-Träger).

[2] = tested on: Klebsiella pneumoniae BC 6; assay: as above; format: cell-based; conditions: BC6, liquid medium, 18 to 20 h at 37 °C, read-out: Minimale Hemmkonzentration Kl.pneum. BC 6
Description: as §1, §2, §3, §4, §5

[3] = tested on: Escherichia coli ATCC 11 775; assay: as above; format: cell-based; conditions: liquid medium, 18 to 20 h at 37 °C, read-out: Minimale Hemmkonzentration E.coli ATCC 11775
Description: as §1, §2, §3, §4, §5

[4] = tested on: E. coli R+TEM (ß-Lactamase-Träger); assay: as above; format: cell-based; conditions: Escherichia coli, read-out: Minimale Hemmkonzentration E.coli R+TEM
Description: as §1, §2, §3, §4, §5

Proteus rettgeri = assay: as above; format: cell-based; conditions: Providencia rettgeri; liquid medium, 18 to 20 h at 37 °C; read-out: Minimale Hemmkonzentration Prot. Rettg.
Description: as §1, §2, §3, §4, §5

[5] = tested on: Klebsiella pneumoniae ATCC 10 031; assay: as above; format: cell-based; conditions: liquid medium, 18 to 20 h at 37 °C, read-out: Minimale Hemmkonzentration Kl.pneum. ATCC 10031
Description: as §1, §2, §3, §4, §5

[6] = tested on: Pseudomonas aeruginosa Hamburgensis; assay: as above; format: cell-based; conditions: liquid medium, 18 to 20 h at 37 °C, read-out: Minimale Hemmkonzentration Pseud. Hbg.
Description: as §1, §2, §3, §4, §5

[7] = tested on: Proteus mirabilis Hamburgensis; assay: as above; format: cell-based; conditions: liquid medium, 18 to 20 h at 37 °C, read-out: Minimale Hemmkonzentration Prot. mirab. Hbg.
Description: as §1, §2, §3, §4, §5

[8] = tested on: Staphylococcus aureus SG 511; assay: as above; format: cell-based; conditions: SG511, liquid medium, 18 to 20 h at 37 °C, read-out: Minimale Hemmkonzentration Staph. aureus SG 511
Description: as §1, §2, §3, §4, §5

[9] = tested on: Pseudomonas aeruginosa walter; assay: as above; format: cell-based; conditions: liquid medium, 18 to 20 h at 37 °C, read-out: Minimale Hemmkonzentration Pseud.W.
Description: as §1, §2, §3, §4, §5

[10] = tested on: Serratia marcescens ATCC 13 880; assay: as above; format: cell-based; conditions: liquid medium, 18 to 20 h at 37 °C, read-out: Minimale Hemmkonzentration Serr. marcesc. ATCC 13880
Description: as §1, §2, §3, §4, §5

E. coli ATCC 11 775 = assay: In vivo activity, experimental intraperitoneal E. coli infection in mice; parameters: species or system Mäuse; conditions: Escherichia coli, ATCC11, sc, 168 h; female NMRI mice, i.p. E. coli infection, s.c. application once 1 h after infection, 7 days observation; dose at which 50 % of animals survive
Description: Eine Reihe von erfindungsgemäßen Verbindungen wurde in vivo bei experimentellen Infektionen an Mäusen untersucht. Man verwendete als pathogene Bakterien E. coli ATCC 11 775. Es wurde eine intraperitoneale Infektion mit 0,2 ml einer Bakteriensuspension (mit 5 % Mucin) gesetzt. Dies entspricht etwa 1,4 x 10^6 Keime E. coli/Maus. Weibliche Mäuse vom Stamm NMRI wurden in Gruppen von jeweils 10 Tieren aufgeteilt, zwei Gruppen blieben unbehandelt, die restlichen Gruppen wurden mit verschiedenen Dosen der jeweiligen erfindungsgemäßen Penicilline und Cephalosporine subcutan zur Bestimmung der ED50 (Dosis bei der 50 % der Tiere überleben) behandelt. Es wurde einmal eine Stunde: nach Setzen der Injektion therapiert.
Der Beobachtungszeitraum betrug in beiden Fällen 7 Tage. Die Ergebnisse dieser Teste mit repräsentativen Vertretern der erfindungsgemäßen Penicilline und Cephalosporine sind in der Tabelle 2 dargestellt.

Row | SMILES | MIC [1] [µg/mL] | MIC [2] [µg/mL] | MIC [3] [µg/mL] | MIC [4] [µg/mL] | MIC (Proteus rettgeri) [µg/mL] | MIC [5] [µg/mL] | MIC [6] [µg/mL] | MIC [7] [µg/mL] | MIC [8] [µg/mL] | MIC [9] [µg/mL] | MIC [10] [µg/mL] | ED50 (E. coli ATCC 11 775) [mg/kg]
1 | CCOC(=O)Oc1ccc([C@@H](NC(=O)Nc2cnc(Nc3ccc(S(N)(=O)=O)cc3)nc2O)C(=O)N[C@@H]2C(=O)N3[C@@H]2SC(C)(C)[C@@H]3C(=O)O)cc1 [A, D-α-[3-(2-p-Aminosulfonylanilino-4-hydroxy-5-pyrimidinyl)-ureido]-p-äthoxycarbonyloxy-benzylpenicillin-Natrium] | 1 (≈ 1.34 µM) | 2 (≈ 2.69 µM) | 0.25 (≈ 0.336 µM) | > 64 | 1 (≈ 1.34 µM) | 2 (≈ 2.69 µM) | 2 (≈ 2.69 µM) | 0.12 (≈ 0.161 µM) | 0.5 (≈ 0.671 µM) | 2 (≈ 2.69 µM) | 0.25 (≈ 0.336 µM) | 5.5
2 | CC1(C)S[C@@H]2[C@H](NC(=O)[C@H](NC(=O)N3CCNC3=O)c3ccccc3)C(=O)N2[C@H]1C(=O)O [Azlocillin, reference compound] | 32 (≈ 69.3 µM) | 32 (≈ 69.3 µM) | 8 to 16 (≈ 17.3 to 34.7 µM) | > 64 | 8 (≈ 17.3 µM) | 32 (≈ 69.3 µM) | 8 (≈ 17.3 µM) | 2 (≈ 4.33 µM) | 2 (≈ 4.33 µM) | 8 (≈ 17.3 µM) | 4 (≈ 8.67 µM) | > 100
3 | CC(=O)Oc1ccc([C@@H](NC(=O)Nc2cnc(Nc3ccc(S(N)(=O)=O)cc3)nc2O)C(=O)N[C@@H]2C(=O)N3[C@@H]2SC(C)(C)[C@@H]3C(=O)O)cc1 [B, D-α-[3-(2-p-Aminosulfonylanilino-4-hydroxy-5-pyrimidinyl)-ureido]-p-methylcarbonyloxy-benzylpenicillin-Natrium] | 2 (≈ 2.8 µM) | 2 (≈ 2.8 µM) | 0.25 (≈ 0.35 µM) | > 64 | 2 (≈ 2.8 µM) | 4 (≈ 5.6 µM) | 4 (≈ 5.6 µM) | 0.12 (≈ 0.168 µM) | 0.5 (≈ 0.7 µM) | 2 (≈ 2.8 µM) | 0.5 (≈ 0.7 µM) | 4.5
4 | CCOC(=O)Oc1ccc([C@@H](NC(=O)Nc2cnc(Nc3ccc(S(N)(=O)=O)cc3)nc2O)C(=O)N[C@@H]2C(=O)N3C(C(=O)O)=C(CSc4nnnn4C)CS[C@H]23)cc1 [C, Natrium-7-{D-α-[3-(2-p-aminosulfonylanilino-4-hydroxy-5-pyrimidinyl)-ureido]-p-äthoxy-carbonyloxy-phenylacetamido}-3-[(1-methyl-tetrazol-5-yl)-thiomethyl]-ceph-3-em-4-carboxylat] | 0.5 (≈ 0.584 µM) | 0.25 (≈ 0.292 µM) | 0.12 (≈ 0.14 µM) | 4 (≈ 4.67 µM) | 1 (≈ 1.17 µM) | 0.5 (≈ 0.584 µM) | 8 (≈ 9.34 µM) | 0.12 (≈ 0.14 µM) | 1 (≈ 1.17 µM) | 4 (≈ 4.67 µM) | 0.25 (≈ 0.292 µM) | 0.6
5 | CO/N=C(\C(=O)N[C@@H]1C(=O)N2C(C(=O)O)=C(COC(N)=O)CS[C@H]12)c1ccco1 [Cefuroxim, reference compound] | 32 (≈ 75.4 µM) | 4 (≈ 9.43 µM) | 8 (≈ 18.9 µM) | 4 (≈ 9.43 µM) | 2 (≈ 4.71 µM) | 2 (≈ 4.71 µM) | > 128 | 0.5 (≈ 1.18 µM) | 1 (≈ 2.36 µM) | > 128 | 8 (≈ 18.9 µM) | > 100
6 | CC(=O)Oc1ccc([C@@H](NC(=O)Nc2cnc(Nc3ccc(S(N)(=O)=O)cc3)nc2O)C(=O)N[C@@H]2C(=O)N3C(C(=O)O)=C(CSc4nnnn4C)CS[C@H]23)cc1 [D, Natrium-7-{D-α-[3-(2-p-aminosulfonyl-anilino-4-hydroxy-5-pyrimidinyl)-ureido]-p-methylcarbonyloxy-phenylacetamido}-3-[(1-methyl-tetrazol-5-yl)-thiomethyl]-ceph-3-em-4-carboxylat] | 4 (≈ 4.84 µM) | 1 (≈ 1.21 µM) | 0.5 (≈ 0.605 µM) | 16 (≈ 19.4 µM) | 2 (≈ 2.42 µM) | 2 (≈ 2.42 µM) | 16 (≈ 19.4 µM) | 0.25 (≈ 0.302 µM) | 1 (≈ 1.21 µM) | 8 (≈ 9.68 µM) | 2 (≈ 2.42 µM) | 3
